Source: patent US10970594B2, “Magnetic resonance maps for analyzing tissue” (Tel HaShomer Medical Research Infrastructure and Services …, priority 2011, dated 2021)

Assays:
[1] = common adverse effects hypertension and proteinuria; thromboembolic disease and hemorrhage infrequent; cited from earlier work
recurrent GBM = experiment: Delayed enhancement subtraction maps and T1-weighted MRI of patients treated with bevacizumab (Example 5); assay type: in vivo, human
Method: In the present example, the delayed enhancement subtraction maps of the present embodiments are used for analyzing brain MRI of subjects treated with bevacizumab.
Four patients were subjected to bevacizumab (Avastin®) treatment. High resolution T1-weighted MR images were acquired and subtraction maps were calculated from these images. Acquisition sessions were held before treatment and several times after treatment. The predetermined time interval between two subtracted images was 75 minutes. Histological analysis was performed with tissue samples obtained from the on of these patients which underwent surgery after treatment with Avastin.

GBM lesion = experiment: Vessel function maps of GBM patients given Bevacizumab IV after failing first line chemoradiation (Example 2, preliminary results); assay type: in vivo, human; conditions: for change of the lesion in the map: patient #1, GBM lesion of FIG. 8
Method: Two GBM patients who failed first line chemoradiation were given Bevacizumab as an IV infusion, 10 mg/kg body weight every 2 weeks (standard Bevacizumab regimen for GBM patients).
The patients were recruited before Bevacizumab treatment was initiated. They underwent the first MRI exam prior to treatment. Second and third MRI exams are performed 1 week and 1 month after the administration of the first Bevacizumab dose. Two more MRI exams are performed at 3 and 5 months post initiation of treatment.
Vessel function maps were calculated at 15 and 75 min after contrast injection. Examples of two patients with 3 GBM lesions with different presentations of response to Avastin, are shown below. The response pattern to Avastin and the physiological meaning of the observed changes in the maps, are being studied.

[2] = patient of FIGS. 30A-F, at 3 months
[3] = patient of FIGS. 30A-F, first month after initiation of treatment
[4] = patient of FIGS. 31A-F, first 3 months
[5] = patient of FIGS. 32A-H, at 1 month
[6] = patient of FIGS. 32A-H, at 3 months, after re-irradiation
[7] = patient of FIGS. 32A-H, first week
[8] = patient #2, FIG. 12, 1 week after the first treatment

## bevacizumab
[1]
  tolerability: generally well tolerated
Recurrent GBM; [2]
  enhancing lesion decreased by, of its original volume: about 57%
  red volume decreased by: about 40%
Recurrent GBM; patient of FIGS. 30A-F, at 3 months, suggesting progression
  blue volume increased by: about 25%
Recurrent GBM; [3]
  blue volume: stable
  enhancing lesion volume (on T1-Gd) decreased by: about 50%
  red volume decreased by: about 50%
Recurrent GBM; patient of FIGS. 31A-F, 5 months MRI, after re-irradiation during bevacizumab treatment
  blue volume: decreased significantly
Recurrent GBM; [4]
  blue volume: increased significantly
  edema: decreased
  lesion volume on T1-Gd: stable
Recurrent GBM; [5]
  blue volume increased by: 200%
  enhancing volume increased by: 70%
  red volume decreased by: about 50%
Recurrent GBM; [6]
  blue volume increased by: over 500%
  enhancing lesion volume increased by: over 500%
  red volume increased by: over 500%
Recurrent GBM; [7]
  blue volume decreased by: 20%
  enhancing lesion volume (on T1-Gd): stable
  red volume increased by: 30%
GBM lesion; 1 month follow-up
  change of the lesion in the map: minor changes
GBM lesion; first week of treatment
  change of the lesion in the map: became more prominently blue
GBM lesion; patient #1, recurrent GBM lesion of FIG. 10, 1 month later
  blue component: increase
GBM lesion; patient #1, recurrent GBM lesion of FIG. 10, first week post treatment
  blue component: decrease
GBM lesion; [8]
  blue component: has not decreased
  edema: somewhat relieved
  pressure on the brain: relieved
  red component of the lesion: significantly decreased
GBM lesion; patient #2, FIG. 12, 3-months follow-up, in parallel to clinical deterioration, no sign of progression on conventional MRI
  blue component: continued to increase
